Consider one compound from ChEMBL document CHEMBL6153089, “Design, Synthesis, and Biological Evaluation of Thieno[3,2-d]pyrimidine Derivatives as the First Bifunctional PI3Kδ Isoform Selective/Bromodomain and Extra-Terminal Inhibitors” (J Med Chem, 2025).

The subject of series [1] is SU-DHL-6. Kind of series: Antiproliferative against activity human SU-DHL-6 cells assessed as inhibition of cell growth incubated for 72 hrs by Celltiter-luminescence analysis. The format is functional, cell-based. To be noted: SU-DHL-6, 72 h.
Series [2] deals with Phosphatidylinositol 4,5-bisphosphate 3-kinase catalytic subunit beta isoform (Homo sapiens, UniProt P42338). Briefly: Inhibition of PI3Kbeta (unknown origin) incubated for 2 hrs in presence of ATP by ADP-kinaseGlo reagent based assay.
The target in series [3] is PI3-kinase p110-alpha/p85-alpha (Homo sapiens) (UniProt P27986+P42336). Briefly: Inhibition of human p110alpha/p85alpha at 1 uM relative to control. It is filed as protein-complex assay.
The target of series [4] is Phosphatidylinositol 4,5-bisphosphate 3-kinase catalytic subunit gamma isoform (Homo sapiens, UniProt P48736). Briefly: Inhibition of human PI3Kgamma at 1 uM relative to control.
The target of series [5] is PI3-kinase p110-delta/p85-alpha (Homo sapiens) (UniProt P27986+O00329). Briefly: Inhibition of human p110delta/p85alpha at 1 uM relative to control. It is filed as protein-complex assay.
The subject of series [6] is SU-DHL-6. Briefly: Antiproliferative activity against human SU-DHL-6 cells assessed as inhibition of cell proliferation by measuring reduction in cell count incubated for 6 days by photographic analysis. The format is functional, cell-based. To be noted: dose 12.5-50 nM, time 6.0 day.
Series [7] relates to HUVEC. Briefly: Cytotoxicity against HUVEC cells assessed as effect on cell proliferation at 5 to 20 uM incubated for 72 hrs by Celltiter-luminescence analysis. It is filed as toxicity, cell-based. As to conditions: human, dose 5-20 µM.
Series [8] deals with WI-38. Kind of series: Cytotoxicity against human WI-38 cells assessed as effect on cell proliferation at 5 to 20 uM incubated for 72 hrs by Celltiter-luminescence analysis. As to conditions: wi-38, 72 h, dose 5-20 µM. It is filed as toxicity, cell-based.
The subject of series [9] is SUD4. Kind of series: Induction of apoptosis in human SU-DHL-4 cells assessed as necrotic cells at 1 uM incubated for 24 hrs by Annexin V-FITC/PI staining based flow cytometric analysis (reference value: 0.642 %). It is filed as functional.
Series [10] relates to SU-DHL-6. Briefly: Induction of apoptosis in human SU-DHL-6 cells assessed as viable cells at 0.5 uM incubated for 24 hrs by Annexin V-FITC/PI staining based flow cytometric analysis (reference value: 61.2 %). It is filed as functional. As to conditions: read-out: Activity.
Series [11] relates to SU-DHL-6. Briefly: Induction of apoptosis in human SU-DHL-6 cells assessed as necrotic cells at 0.5 uM incubated for 24 hrs by Annexin V-FITC/PI staining based flow cytometric analysis (reference value: 0.246 %). It is filed as functional.
The subject of series [12] is SU-DHL-6. Briefly: Induction of apoptosis in human SU-DHL-6 cells assessed as late apoptotic cells at 1 uM incubated for 24 hrs by Annexin V-FITC/PI staining based flow cytometric analysis (reference value: 6.43 %). The format is functional.
Series [13] concerns SU-DHL-6. Kind of series: Inhibition of AKT phosphorylation in human SU-DHL-6 cells incubated for 12 hrs by Western blot analysis. It is filed as cell-based. To be noted: dose 0.25-1 µM.
In series [14] the test system is SUD4. Briefly: Downregulation of c-Myc expression in human SU-DHL-4 cells at 0.25 to 1 uM incubated for 12 hrs by Western blot analysis. The format is functional, cell-based. As to conditions: dose 0.25-1 µM.
Series [15] in a line: Toxicity in female BALB/c mouse model xenografted with human SU-DHL-6 cells assessed as effect on spleen histopathology at 20 mg/kg, po administered once daily via gavage for 15 days by H and E staining based analysis. The format is organism-based. To be noted: in vivo, 360 h, time 15 day.

SMILES strings stand for the structures. Calls of active or inactive are those of the source. The rule behind the calls is not given here.

Phosphatidylinositol 4,5-bisphosphate 3-kinase catalytic subunit beta isoform, sequence (P42338 whole entry, canonical isoform): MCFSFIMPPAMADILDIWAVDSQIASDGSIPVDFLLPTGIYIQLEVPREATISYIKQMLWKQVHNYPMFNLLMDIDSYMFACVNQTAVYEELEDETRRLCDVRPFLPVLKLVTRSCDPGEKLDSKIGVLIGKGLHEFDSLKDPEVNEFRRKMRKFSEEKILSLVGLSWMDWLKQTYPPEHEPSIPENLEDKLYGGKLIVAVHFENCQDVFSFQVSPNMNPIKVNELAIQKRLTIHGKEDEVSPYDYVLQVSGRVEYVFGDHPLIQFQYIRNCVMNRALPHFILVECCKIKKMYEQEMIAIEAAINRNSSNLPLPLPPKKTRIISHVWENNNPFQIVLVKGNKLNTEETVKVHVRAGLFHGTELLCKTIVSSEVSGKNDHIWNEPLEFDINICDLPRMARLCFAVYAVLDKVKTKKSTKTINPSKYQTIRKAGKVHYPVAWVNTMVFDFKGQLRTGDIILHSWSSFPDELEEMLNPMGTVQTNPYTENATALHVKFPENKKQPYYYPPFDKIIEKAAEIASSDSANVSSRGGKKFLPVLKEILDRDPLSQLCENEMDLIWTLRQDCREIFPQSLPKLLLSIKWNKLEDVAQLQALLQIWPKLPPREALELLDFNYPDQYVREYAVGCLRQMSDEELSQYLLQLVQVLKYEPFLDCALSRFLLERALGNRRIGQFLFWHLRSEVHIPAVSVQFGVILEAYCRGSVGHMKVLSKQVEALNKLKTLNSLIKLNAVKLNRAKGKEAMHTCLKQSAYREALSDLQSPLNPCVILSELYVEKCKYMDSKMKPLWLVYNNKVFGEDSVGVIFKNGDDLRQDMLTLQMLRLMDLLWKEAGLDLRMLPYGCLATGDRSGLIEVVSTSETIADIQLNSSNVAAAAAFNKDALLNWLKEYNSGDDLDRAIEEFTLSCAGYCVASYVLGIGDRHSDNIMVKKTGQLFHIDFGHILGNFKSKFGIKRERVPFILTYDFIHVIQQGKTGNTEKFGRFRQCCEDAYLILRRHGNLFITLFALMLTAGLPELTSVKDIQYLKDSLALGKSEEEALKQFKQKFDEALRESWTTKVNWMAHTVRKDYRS
Phosphatidylinositol 4,5-bisphosphate 3-kinase catalytic subunit gamma isoform, sequence (P48736 whole entry, looked up, canonical isoform): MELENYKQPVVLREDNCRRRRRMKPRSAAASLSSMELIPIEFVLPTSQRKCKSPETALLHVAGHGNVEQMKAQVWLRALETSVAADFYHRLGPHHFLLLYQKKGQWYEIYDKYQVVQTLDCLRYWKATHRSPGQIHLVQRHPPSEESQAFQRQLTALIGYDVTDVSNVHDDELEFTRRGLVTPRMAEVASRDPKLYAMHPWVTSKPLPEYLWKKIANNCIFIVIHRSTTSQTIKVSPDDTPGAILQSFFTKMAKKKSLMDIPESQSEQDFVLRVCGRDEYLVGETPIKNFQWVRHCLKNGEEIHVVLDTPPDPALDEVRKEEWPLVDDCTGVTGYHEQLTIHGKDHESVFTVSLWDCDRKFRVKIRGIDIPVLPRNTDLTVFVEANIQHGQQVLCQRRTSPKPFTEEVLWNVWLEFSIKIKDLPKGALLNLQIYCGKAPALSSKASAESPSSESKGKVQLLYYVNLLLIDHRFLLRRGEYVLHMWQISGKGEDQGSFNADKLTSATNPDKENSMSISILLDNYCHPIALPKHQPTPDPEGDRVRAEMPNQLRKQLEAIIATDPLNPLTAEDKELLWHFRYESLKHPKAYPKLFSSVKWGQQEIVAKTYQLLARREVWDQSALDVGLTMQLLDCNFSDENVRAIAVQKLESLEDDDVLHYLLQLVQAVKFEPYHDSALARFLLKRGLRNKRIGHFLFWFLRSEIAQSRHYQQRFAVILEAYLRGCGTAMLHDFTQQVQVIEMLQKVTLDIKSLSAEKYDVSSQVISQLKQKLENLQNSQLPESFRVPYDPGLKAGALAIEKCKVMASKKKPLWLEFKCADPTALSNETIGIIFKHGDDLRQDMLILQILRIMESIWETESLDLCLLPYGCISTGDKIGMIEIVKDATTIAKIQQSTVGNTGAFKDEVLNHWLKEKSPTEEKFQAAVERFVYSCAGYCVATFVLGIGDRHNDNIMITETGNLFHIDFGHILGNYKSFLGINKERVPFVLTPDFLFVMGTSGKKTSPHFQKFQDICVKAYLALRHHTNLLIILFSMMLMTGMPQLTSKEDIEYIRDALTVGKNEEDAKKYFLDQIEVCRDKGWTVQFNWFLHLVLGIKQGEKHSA

As to `Cn1cc(-c2nc(N3CCOCC3)c3sc(CN4CCC(C(C)(C)O)CC4)cc3n2)c2cc[nH]c2c1=O`, the IC50 in series [1] stood at 61 nM; in series [2] it was 4750 nM. Besides, the inhibition in series [3] is 41%; in series [4], 57.2%; in [5] it was 94.1%; in series [13], “Dose-dependent-effect”. The Activity result is “Dose-dependent-effect; Stronger Effect Observed At Lower Concentration Than Those Of Sf2523” in [6]; “Non-toxic” in series [7]; “Non-toxic” in series [8]; 0.505% in [9]; 0.67% in series [11]; 8.72% in [12]. Moreover, the Activity result in series [15] was “Non-toxic”. In addition, in series [10], the viability at 0.5 µM was determined as 49.7%. Besides, the outcome in series [14] was Active.
